According to US20140328893A1, “NUTLIN COMPOUNDS FOR USE IN THE TREATMENT OF PULMONARY HYPERTENSION” (Institut National de la Sante et de la Recherche Medicale …, priority 2011, published 2014):

Key:
SM22-5-HTT+ mice = experiment: Pulmonary hypertension in SM22-5-HTT+ mice; type: in vivo; conditions: 12 mg/Kg/day
Procedure: (§1) Wild-type mice aged 15-20 weeks were randomly allocated to room air or chronic hypoxia. Transgenic animals expressing the human 5-HTT gene in smooth muscle (SM22-5-HTT+ mice) were produced as previously described. All animal care and procedures were in accordance with institutional guidelines.
(§2) Nutlin-3 was administered at the increasing dosages of 6, 12, and 25 mg/Kg/day by intraperitoneal injection. At completion of treatment, lungs were removed and prepared for histological or Western blot analyses.
Mice exposed previously to hypoxia or room air or SM22-5-HTT+ mice were anaesthetized. After incision of the abdomen, a 26-gauge needle connected to a pressure transducer was inserted into the right ventricle through the diaphragm, and right ventricular systolic pressure (RVSP) was recorded immediately. Then, the thorax was opened and the lungs and heart were removed. […] The percentage of pulmonary vessels in each muscularization category was determined by dividing the number of vessels in that category by the total number counted in the relevant group of animals. For fully muscular vessels, video images were obtained and arterial diameters were measured using computerized image-analysis software. Percent wall thickness was then calculated as the diameter of the external elastic lamina minus the diameter of the internal lamina divided by the diameter of the external elastic lamina.

p53 pathway [1] = experiment: Lung p53 and p21 levels in SM22-5-HTT+ mice (Western blotting, RT-qPCR); type: in vivo
Procedure: as §2
(§3) p53, p16, p21, caspase and MDM2 proteins were detected and measured in lung tissues and/or cells using Western blotting. Levels of p21, Bax, and PUMA mRNA in lung tissues and/or cells were determined using RT-qPCR. Total mRNA was extracted from lung tissues and PA-SMC using RNeasy Mini Kit (Qiagen, ZA Courtaboeuf, France). First-strand cDNA was synthesized in reversed transcribed samples, as follows: 1 μg total RNA isolated from cells or lung tissues, 200 U/μL SuperScrip II RT (Invitrogen, Life Technologies, Cergy-Pontoise, France), 100 ng Random primers and 10 mM mixed dNTP. Quantitative PCR was performed in a 7900HT Real-Time PCR system (Applied Biosystems, ZA Courtaboeuf, France), using SYBR green Mix from Invitrogen.

cultured human PA-SMC [2] = experiment: PA-SMC senescence (beta-galactosidase-positive cells); type: cell-based; conditions: 48 hours incubation
Procedure: (§4) Cultured PA-SMCs were collected from pulmonary arteries of patients undergoing lung surgery for localized lung tumours. To determine the phenotypic characteristics of cultured PA-SMCs, the cells from each culture were assessed for expression of musclespecific contractile and cytoskeletal proteins, including smooth muscle cell α-actin and desmin.
(§5) To assess the effects of nutlin on cell senescence, the percentage of beta-galactosidase (β-gap)-positive cells was measured after 48 hours incubation with nutlin-3 in presence or absence of vehicle or PDGF. The amounts of p53, p16, and p21 proteins or mRNA were determined by western blotting o by RT-qPCR, respectively.

p53 pathway [3] = experiment: Lung p53 and p21 levels in hypoxic mice (Western blotting, RT-qPCR); type: in vivo
Procedure: as §2, §3

cultured human PA-SMC [4] = experiment: PA-SMC proliferation (MTT); type: cell-based; conditions: 2.5-10 μM, 48 hours
Procedure: as §4
To assess the effects of nutlin-3 on PASMC proliferation, cells were exposed to increasing concentration of nutlin-3a (2.5-10 μM) or vehicle in serum-free medium or in presence of PDGF-BB (50 ng/ml). After 48 hours, tetrazolium salt (MTT), (Sigma, Lyon, France) was added to each well (0.2 mg/ml). After 4 hours incubation at 37° C., the culture medium was removed and formazan crystals were solubilized by adding 500 μL of DMSO. Tetrazolium salt reduction to formazan within the cells was quantified by spectrophotometry at 520 nm.

p53 pathway [5] = experiment: p53 pathway activation in cultured human PA-SMCs (Western blotting, RT-qPCR); type: cell-based; conditions: 2.5 to 10 μM
Procedure: as §4, §5, §3

[6] = test system: mice exposed to chronic hypoxia; experiment: Pulmonary hypertension in mice exposed to chronic hypoxia; type: in vivo
Procedure: as §1, §2
Mice were exposed to chronic hypoxia (10% O2) in a ventilated chamber (Biospherix, N.Y., USA). The hypoxic environment was established by flushing the chamber with a mixture of room air and nitrogen, and the gas was recirculated. The chamber environment was monitored using an oxygen analyzer. Carbon dioxide was removed by soda lime granules, and excess humidity was prevented by cooling of the recirculation circuit. Normoxic mice were kept in the same room, with the same light-dark cycle.
Mice exposed previously to hypoxia or room air or SM22-5-HTT+ mice were anaesthetized. After incision of the abdomen, a 26-gauge needle connected to a pressure transducer was inserted into the right ventricle through the diaphragm, and right ventricular systolic pressure (RVSP) was recorded immediately. Then, the thorax was opened and the lungs and heart were removed. The right ventricle (RV) was dissected from the left ventricle plus septum (LV+S), and these dissected samples were weighed for determination of Fulton's index (RV/LV+S). The lungs were fixed by intratracheal infusion of 4% aqueous buffered formalin. A midsagittal slice of the right lung was processed for paraffin embedding. Sections 5 μm in thickness were cut and stained with hematoxylin-phloxine-saffron for examination by light microscopy. In each mouse, a total of 20 to 30 intraacinar vessels accompanying either alveolar ducts or alveoli were examined by an observer who was blinded to the treatment or genotype. Each vessel was categorized as nonmuscular (no evidence of vessel wall muscularization), partially muscular (smooth muscle cells [SMCs] identifiable in less than three-fourths of the vessel circumference), or fully muscular (SMCs in more than three-fourths of the vessel circumference). The percentage of pulmonary vessels in each muscularization category was determined by dividing the number of vessels in that category by the total number counted in the relevant group of animals. For fully muscular vessels, video images were obtained and arterial diameters were measured using computerized image-analysis software. Percent wall thickness was then calculated as the diameter of the external elastic lamina minus the diameter of the internal lamina divided by the diameter of the external elastic lamina.

[7] = test system: p53-deficient (p53−/−) mice; experiment: Chronic hypoxia-induced pulmonary hypertension in p53-deficient mice; type: in vivo
Description: Normoxic mice were kept in the same room, with the same light-dark cycle.

[8] = chronic hypoxia mice, 6 to 25 mg/Kg/day intraperitoneally
[9] = mice, associated with protective effects

| SMILES | PH in SM22-5-HTT+ mice (SM22-5-HTT+ mice) | lung p21 mRNA (p53 pathway [1]) | lung p21 protein (p53 pathway [1]) | lung p53 protein (p53 pathway [1]) | percentage of beta-galactosidase stained cells (senescent cells) (cultured human PA-SMC [2]) | lung p21 mRNA (p53 pathway [3]) | lung p21 protein (p53 pathway [3]) | lung p53 protein (p53 pathway [3]) | cell proliferation stimulated by 50 ng/ml PDGF (cultured human PA-SMC [4]; 50 ng/ml PDGF) | cell proliferation stimulated by 0.2% FCS (cultured human PA-SMC [4]; 0.2% FCS) | mRNA level of p53 target gene Bax (p53 pathway [5]) | mRNA level of p53 target gene PUMA (p53 pathway [5]) | mRNA level of p53 target gene p21 (p53 pathway [5]) | p53 protein (p53 pathway [5]) | distal pulmonary artery muscularization [6, 8] | pulmonary hypertension [6, 8] | right ventricular hypertrophy [6, 8] | PA-SMC proliferation [6, 9] | apoptosis [6, 9] | pulmonary hypertension induced by chronic hypoxia in p53-deficient mice [7] |
| --- | --- | --- | --- | --- | --- | --- | --- | --- | --- | --- | --- | --- | --- | --- | --- | --- | --- | --- | --- | --- |
| COc1ccc(C2=NC(c3ccc(Cl)cc3)C(c3ccc(Cl)cc3)N2C(=O)N2CCNC(=O)C2)c(OC(C)C)c1 (racemic) [Nutlin-3, (±)-4-[4,5-Bis(4-chlorophenyl)-2-(2-isopropoxy-4-methoxy-phenyl)-4,5-dihydro-imidazole-1-carbonyl]-piperazin-2-one] | partially reversed | marked increases | marked increases | marked increases | increase | marked increases | marked increases | marked increases | dose-dependent inhibition | dose-dependent inhibition | increased | increased | increased | increased | prevented | prevented | prevented | decrease | increase |  |
| COc1ccc(C2=N[C@@H](c3ccc(Cl)cc3)[C@@H](c3ccc(Cl)cc3)N2C(=O)N2CCNC(=O)C2)c(OC(C)C)c1 [nutlin-3a] |  |  |  |  |  |  |  |  |  |  |  |  |  |  |  |  |  |  |  | remained unaffected |
